Results published in patent publication US5932606A, “Pyrazinone, pyridinone, piperidine and pyrrolidine thrombin inhibitors” (Merck & Co., Inc., priority 1998, dated 1999).
Square brackets hold non-standard residues; d marks the D form. Peptide text beside a SMILES is read from it. * marks the point of attachment. AFC = O=c1cc(C(F)(F)F)c2ccc(N*)cc2o1; pNA = O=[N+]([O-])c1ccc(N*)cc1; Cbz = O=C(OCc1ccccc1)*; Sar = CNCC(=O)O

Columns and labels:
thrombin = assay: More sensitive thrombin activity assay with fluorogenic substrate Z-GPR-afc (fluorescence at 500 nm); type: biochemical, human; conditions: excitation at 400 nm
Description: (§1) Assays of human a-thrombin and human trypsin were performed at 25° C. in 0.05 M TRIS buffer pH 7.4, 0.15 M NaCl, 0.1% PEG. Trypsin assays also contained 1 mM CaCl2.
In certain studies with potent inhibitors (Ki <10 nM) where the degree of inhibition of thrombin was high, a more sensitive activity assay was employed. […] Concentrations of stock solutions of Z-GPR-afc were determined from measurements of absorbance at 380 nm of the 7-amino-4-trifluoromethyl coumarin produced upon complete hydrolysis of an aliquot of the stock solution by thrombin.
(§2) Activity assays were performed by diluting a stock solution of substrate at least tenfold to a final concentration ≤0.5 Km into a solution containing enzyme or enzyme equilibrated with inhibitor. Times required to achieve equilibration between enzyme and inhibitor were determined in control experiments. Initial velocities of product formation in the absence (Vo) or presence of inhibitor (Vi) were measured. Assuming competitive inhibition, and that unity is negligible compared Km /[S], […] (where [S], [I], and e respectively represent the total concentrations, of substrate, inhibitor and enzyme), the equilibrium constant (Ki) for dissociation of the inhibitor from the enzyme can be obtained from the dependence of Vo /Vi on [I] shown in equation 1.

human trypsin = assay: In vitro assay for determining proteinase inhibition, trypsin (p-nitroanilide substrate sar-PR-pna, 405 nm); type: biochemical; conditions: 25° C., pH 7.4, 1 mM CaCl2
Description: (§3) In Vitro Assay for Determining Proteinase Inhibition
as §1, §2

human a-thrombin = assay: In vitro assay for determining proteinase inhibition, thrombin (p-nitroanilide substrate sar-PR-pna, 405 nm); type: biochemical; conditions: 25° C., pH 7.4
Description: as §3, §1, §2

Km (thrombin) [µM] | Structure (SMILES) | Km (human trypsin) [µM] | Km (human a-thrombin) [µM]
27 | N=C(N)NCCC[C@H](NC(=O)[C@@H]1CCCN1C(=O)CNC(=O)OCc1ccccc1)C(=O)Nc1ccc2c(C(F)(F)F)cc(=O)oc2c1 [Z-GPR-afc, Cbz-Gly-Pro-Arg-7-amino-4-trifluoromethylcoumarin] (Cbz-Gly-Pro-Arg-{AFC}) | – | –
– | CNCC(=O)N1CCC[C@H]1C(=O)N[C@@H](CCCNC(=N)N)C(=O)Nc1ccc([N+](=O)[O-])cc1 [sar-PR-pna, sarcosine-Pro-Arg-p-nitroanilide] (H-[Sar]-Pro-Arg-pNA) | 59 | 125
